Data: PubChem BioAssay AID1745844 (Carcinogenic Potency Database (CPDB), 2022)
The source made the active and inactive calls. The rule behind the calls is not given here.

Tested on: rodent lifetime carcinogenesis bioassay, tumor incidence TD50
Assay: carcinogenic potency in animals, long-term in vivo studies, CPDB compilation (AID 1745844)

O=S(=O)(O)c1cc(S(=O)(=O)O)c2c(N=Nc3ccccc3)c(O)ccc2c1
carcinogen call (mouse, strain B6C3F1, females, in feed, site: any site (literature study), lesion: several types, types named in the paper, dosed 103 weeks, study length 104 weeks): negative (inactive) | carcinogen call (mouse, strain B6C3F1, males, in feed, site: any site (literature study), lesion: several types, types named in the paper, dosed 103 weeks, study length 103 weeks): negative (inactive) | TD50 (mouse, strain B6C3F1, males, in feed, site: lung, lesion: alveolar/bronchiolar adenoma + alveolar/bronchiolar carcinoma, dosed 103 weeks, study length 103 weeks): 22000 mg/kg/day | carcinogen call (rat, strain Fischer 344, females, in feed, site: any site (literature study), lesion: several types, types named in the paper, dosed 103 weeks, study length 104 weeks): negative (inactive) | TD50 (rat, strain Fischer 344, males, in feed, site: any site (literature study), lesion: several types, types named in the paper, dosed 103 weeks, study length 104 weeks): 2710 mg/kg/day | TD50 (rat, strain Fischer 344, males, in feed, site: liver, lesion: hepatocellular adenoma + hepatocellular carcinoma + neoplastic nodule, dosed 103 weeks, study length 104 weeks): 620 mg/kg/day | TD50 (rat, strain Fischer 344, males, in feed, site: tunica vaginalis, lesion: mesothelioma, NOS + mesothelioma, malignant, dosed 103 weeks, study length 104 weeks): 915 mg/kg/day (inactive)

O=CNc1nc(-c2ccc([N+](=O)[O-])o2)cs1
TD50 (hamster, strain Syrian Golden, males, in feed, site: forestomach, lesion: squamous-cell papilloma, dosed 48 weeks, study length 70 weeks): 83.8 mg/kg/day | carcinogen call (hamster, strain Syrian Golden, males, in feed, site: urinary bladder, lesion: several types, types named in the paper, dosed 48 weeks, study length 70 weeks): positive | TD50 (hamster, strain Syrian Golden, males, in feed, site: urinary bladder, lesion: squamous-cell carcinoma, dosed 48 weeks, study length 70 weeks): 54 mg/kg/day | TD50 (mouse, strain Charles River CD1, females, in feed, site: any site (literature study), lesion: several types, types named in the paper, dosed 36 weeks, study length 68 weeks): 18.7 mg/kg/day | TD50 (mouse, strain Charles River CD1, females, in feed, site: lung, lesion: adenoma, dosed 36 weeks, study length 68 weeks): 1120 mg/kg/day | TD50 (mouse, strain Charles River CD1, females, in feed, site: urinary bladder, lesion: spindle-cell tumor, dosed 36 weeks, study length 68 weeks): 128 mg/kg/day | TD50 (mouse, strain Charles River CD1, females, in feed, site: urinary bladder, lesion: squamous-cell carcinoma, dosed 36 weeks, study length 68 weeks): 128 mg/kg/day | TD50 (mouse, strain Charles River CD1, females, in feed, site: urinary bladder, lesion: transitional-cell carcinoma, dosed 36 weeks, study length 68 weeks): 33.3 mg/kg/day | TD50 (mouse, strain Charles River CD1, males, in feed, site: any site (literature study), lesion: several types, types named in the paper, dosed 40 weeks, study length 77 weeks): 21.5 mg/kg/day | TD50 (mouse, strain Charles River CD1, males, in feed, site: urinary bladder, lesion: spindle-cell tumor, dosed 40 weeks, study length 77 weeks): 97.1 mg/kg/day | TD50 (mouse, strain Charles River CD1, males, in feed, site: urinary bladder, lesion: squamous-cell carcinoma, dosed 40 weeks, study length 77 weeks): 250 mg/kg/day | TD50 (mouse, strain Charles River CD1, males, in feed, site: urinary bladder, lesion: transitional-cell carcinoma, dosed 40 weeks, study length 77 weeks): 30.5 mg/kg/day | TD50 (mouse, strain NMRI, females, by gavage, site: any site (literature study), lesion: benign tumor, dosed 68 weeks, study length 75 weeks): 69.4 mg/kg/day | TD50 (mouse, strain NMRI, females, by gavage, site: any site (literature study), lesion: malignant tumor, dosed 68 weeks, study length 75 weeks): 59.5 mg/kg/day | TD50 (mouse, strain NMRI, females, by gavage, site: forestomach, lesion: papilloma, dosed 68 weeks, study length 75 weeks): 164 mg/kg/day | TD50 (mouse, strain NMRI, females, by gavage, site: forestomach, lesion: squamous-cell carcinoma, dosed 68 weeks, study length 75 weeks): 139 mg/kg/day | TD50 (mouse, strain NMRI, females, by gavage, site: liver, lesion: malignant tumor, dosed 68 weeks, study length 75 weeks): 2390 mg/kg/day | TD50 (mouse, strain NMRI, females, by gavage, site: stomach, glandular, lesion: malignant tumor, dosed 68 weeks, study length 75 weeks): 944 mg/kg/day | TD50 (mouse, strain Swiss, females, in feed, site: all sites, lesion: leukemia, dosed 33 weeks, study length 52 weeks): 47.6 mg/kg/day | TD50 (mouse, strain Swiss, females, in feed, site: all sites, lesion: leukemia, dosed 46 weeks, study length 53 weeks): 55.4 mg/kg/day | TD50 (mouse, strain Swiss, females, in feed, site: all sites, lesion: lymphocytic leukemia, dosed 46 weeks, study length 66 weeks): 78.3 mg/kg/day | TD50 (mouse, strain Swiss, females, in feed, site: forestomach, lesion: squamous-cell papilloma, dosed 46 weeks, study length 66 weeks): 235 mg/kg/day | TD50 (mouse, strain Swiss, females, in feed, site: lung, lesion: alveolar-cell adenoma, dosed 33 weeks, study length 52 weeks): 208 mg/kg/day | TD50 (mouse, strain Swiss, females, in feed, site: lung, lesion: alveolar-cell carcinoma, dosed 46 weeks, study length 66 weeks): 86.4 mg/kg/day | TD50 (mouse, strain Swiss, females, in feed, site: lung, lesion: carcinoma, dosed 46 weeks, study length 53 weeks): 163 mg/kg/day | TD50 (mouse, strain Swiss, females, in feed, site: urinary bladder, lesion: carcinoma, dosed 33 weeks, study length 52 weeks): 19.8 mg/kg/day | TD50 (mouse, strain Swiss, females, in feed, site: urinary bladder, lesion: one or several types, types not named, dosed 46 weeks, study length 53 weeks): 18.2 mg/kg/day | TD50 (mouse, strain Swiss, females, in feed, site: urinary bladder, lesion: transitional-cell carcinoma, dosed 46 weeks, study length 66 weeks): 7.72 mg/kg/day | TD50 (rat, strain Fischer 344, males, in feed, site: urinary bladder, lesion: carcinoma, dosed 30 weeks, study length 104 weeks): 3.18 mg/kg/day | TD50 (rat, strain Fischer 344, males, in feed, site: urinary bladder, lesion: papillary carcinoma, dosed 30 weeks, study length 52 weeks): 5.92 mg/kg/day | TD50 (rat, strain Fischer 344, males, in feed, site: urinary bladder, lesion: several types, types named in the paper, dosed 30 weeks, study length 52 weeks): 1.31 mg/kg/day | TD50 (rat, strain Fischer, males, in feed, site: liver, lesion: hyperplastic nodule, dosed 36 weeks, study length 74 weeks): 263 mg/kg/day | TD50 (rat, strain Fischer, males, in feed, site: urinary bladder, lesion: carcinoma, invasive, dosed 36 weeks, study length 74 weeks): 9.74 mg/kg/day | TD50 (rat, strain Fischer, males, in feed, site: urinary bladder, lesion: carcinoma, invasive, dosed 77 weeks, study length 77 weeks): 18.1 mg/kg/day | TD50 (rat, strain Fischer, males, in feed, site: urinary bladder, lesion: carcinoma, noninvasive, dosed 36 weeks, study length 74 weeks): 60.5 mg/kg/day | TD50 (rat, strain Fischer, males, in feed, site: urinary bladder, lesion: carcinoma, noninvasive, dosed 77 weeks, study length 77 weeks): 195 mg/kg/day | TD50 (rat, strain Fischer, males, in feed, site: urinary bladder, lesion: carcinoma, dosed 36 weeks, study length 74 weeks): 4.51 mg/kg/day | carcinogen call (rat, strain Fischer, males, in feed, site: urinary bladder, lesion: carcinoma, dosed 72 weeks, study length 72 weeks): positive | TD50 (rat, strain Fischer, males, in feed, site: urinary bladder, lesion: carcinoma, dosed 77 weeks, study length 77 weeks): 9.87 mg/kg/day | TD50 (rat, strain Sprague-Dawley, females, in feed, site: urinary bladder, lesion: papillary carcinoma, dosed 26 weeks, study length 70 weeks): 48.6 mg/kg/day | TD50 (rat, strain Sprague-Dawley, females, in feed, site: urinary bladder, lesion: papillary carcinoma, dosed 46 weeks, study length 70 weeks): 82.7 mg/kg/day | carcinogen call (rat, strain Sprague-Dawley, females, in feed, site: urinary bladder, lesion: several types, types named in the paper, dosed 26 weeks, study length 70 weeks): positive | TD50 (rat, strain Sprague-Dawley, females, in feed, site: urinary bladder, lesion: several types, types named in the paper, dosed 46 weeks, study length 63 weeks): 5.07 mg/kg/day | carcinogen call (rat, strain Sprague-Dawley, females, in feed, site: urinary bladder, lesion: several types, types named in the paper, dosed 46 weeks, study length 70 weeks): positive | carcinogen call (rat, strain Sprague-Dawley, females, in feed, site: urinary bladder, lesion: transitional-cell carcinoma, dosed 26 weeks, study length 70 weeks): positive | carcinogen call (rat, strain Sprague-Dawley, females, in feed, site: urinary bladder, lesion: transitional-cell carcinoma, dosed 46 weeks, study length 70 weeks): positive | carcinogen call (rat, strain Sprague-Dawley, males, in feed, site: urinary bladder, lesion: transitional-cell carcinoma, dosed 26 weeks, study length 52 weeks): positive | carcinogen call (rat, strain Sprague-Dawley, males, in feed, site: urinary bladder, lesion: transitional-cell carcinoma, dosed 46 weeks, study length 52 weeks): positive | carcinogen call (rat, strain Wistar, females, in feed, site: urinary bladder, lesion: transitional-cell carcinoma, dosed 34 weeks, study length 52 weeks): positive

FCC(F)(F)F
carcinogen call (mouse, strain B6C3F1, females, inhaled, site: liver, lesion: hepatocellular adenoma, dosed 104 weeks, study length 104 weeks): negative (inactive) | carcinogen call (mouse, strain B6C3F1, females, inhaled, site: liver, lesion: hepatocellular carcinoma, dosed 104 weeks, study length 104 weeks): negative (inactive) | carcinogen call (mouse, strain B6C3F1, females, inhaled, site: lung, lesion: alveolar/bronchiolar tumor, dosed 104 weeks, study length 104 weeks): negative (inactive) | TD50 (mouse, strain B6C3F1, males, inhaled, site: liver, lesion: hepatocellular adenoma, dosed 104 weeks, study length 104 weeks): 1.5e+06 mg/kg/day (inactive) | TD50 (mouse, strain B6C3F1, males, inhaled, site: liver, lesion: hepatocellular carcinoma, dosed 104 weeks, study length 104 weeks): 260000 mg/kg/day (inactive) | carcinogen call (mouse, strain B6C3F1, males, inhaled, site: lung, lesion: alveolar/bronchiolar tumor, dosed 104 weeks, study length 104 weeks): negative (inactive) | TD50 (rat, strain Alpk:APfSD, males, inhaled, site: testis, lesion: Leydig-cell adenoma, dosed 104 weeks, study length 104 weeks): 29900 mg/kg/day | TD50 (rat, strain Han-Ibm Wistar, females, inhaled, site: liver, lesion: hepatocellular carcinoma, dosed 108 weeks, study length 108 weeks): 2.8e+06 mg/kg/day (inactive) | TD50 (rat, strain Han-Ibm Wistar, males, inhaled, site: liver, lesion: hepatocellular adenoma, dosed 108 weeks, study length 108 weeks): 70100 mg/kg/day (inactive) | TD50 (rat, strain Han-Ibm Wistar, males, inhaled, site: liver, lesion: hepatocellular carcinoma, dosed 108 weeks, study length 108 weeks): 140000 mg/kg/day (inactive) | carcinogen call (rat, strain Han-Ibm Wistar, males, inhaled, site: testis, lesion: interstitial-cell tumor, dosed 108 weeks, study length 108 weeks): negative (inactive)

C=CCOCC1CO1 (stereo not given)
TD50 (mouse, strain B6C3F1, females, inhaled, site: Harderian gland, lesion: adenoma, dosed 102 weeks, study length 105 weeks): 121 mg/kg/day | TD50 (mouse, strain B6C3F1, females, inhaled, site: lung, lesion: alveolar/bronchiolar adenoma + alveolar/bronchiolar carcinoma, dosed 102 weeks, study length 105 weeks): 123 mg/kg/day | TD50 (mouse, strain B6C3F1, females, inhaled, site: nasal cavity, respiratory epithelium, lesion: adenoma, dosed 102 weeks, study length 105 weeks): 614 mg/kg/day | TD50 (mouse, strain B6C3F1, males, inhaled, site: lung, lesion: alveolar/bronchiolar adenoma + alveolar/bronchiolar carcinoma, dosed 102 weeks, study length 105 weeks): 727 mg/kg/day | TD50 (mouse, strain B6C3F1, males, inhaled, site: nasal cavity, respiratory epithelium, lesion: adenoma, dosed 102 weeks, study length 105 weeks): 182 mg/kg/day | TD50 (rat, strain Osborne-Mendel, females, inhaled, site: any site (literature study), lesion: several types, types named in the paper, dosed 103 weeks, study length 106 weeks): 25.9 mg/kg/day (inactive) | TD50 (rat, strain Osborne-Mendel, males, inhaled, site: any site (literature study), lesion: several types, types named in the paper, dosed 103 weeks, study length 106 weeks): 1.01 mg/kg/day | TD50 (rat, strain Osborne-Mendel, males, inhaled, site: nasal cavity, olfactory epithelium + nasal cavity, respiratory epithelium, lesion: adenocarcinoma + papillary adenoma + squamous-cell carcinoma, dosed 103 weeks, study length 106 weeks): 14.9 mg/kg/day
